Source: US9290487B2, “Pharmaceutical composition for treating diabetes” (Ajinomoto Co., Inc., priority 2011, dated 2016)

Target: human GYS1 (glycogen synthase) (Homo sapiens (Human), UniProt P13807)
Experiment: Measurement of glycogen synthase activity (coupled pyruvate kinase/lactate dehydrogenase assay, absorbance at 340 nm)
Type: biochemical
Details: concentration inducing relative activity of 50% (100% = Ex. 1 of WO/2011/058154 at 10 μM)
Method: A human GYS1 expression plasmid (pCDNA3.1(+)-hGYS1) was constructed by the following method. Using a human skeletal muscle cDNA of Human MTC Panel I (Takara Bio Inc., 636742) as a template, a human GYS1 gene was amplified by a PCR method using cloning primers (Forward Primer: ATGCCTTTAAACCGCAC (SEQ ID NO: 1), Reverse Primer: TTAGTTACGCTCCTCGC (SEQ ID NO: 2)). Using the amplified human GYS1 sequence as a template, a restriction enzyme sequence was added by a PCR method using sub-cloning primers (Forward Primer: […] (SEQ ID NO: 3), Reverse Primer: […] (SEQ ID NO: 4)). Then, the human GYS1 gene was introduced between a Xho I site and a Xba I site of pCDNA3.1(+) (Invitrogen Corporation, V790-20).
Glycogen synthase was prepared by the following method according to the published article (THE JOURNAL OF BIOLOGICAL CHEMISTRY Vol. 269, No. 41, 25534-25542, 1994). Human kidney-derived HEK293T cells were seeded in a dish (Thermo Fisher Scientific Inc., 168381) using a 10% FBS-containing DMEM (Nacalai Tesque, Inc., 0845874) medium, and cultured overnight. Then, using Lipofectamine LTX (Invitrogen Corporation, 15338-100), the human GYS1 expression vector was transfected according to the attached manual. After culturing under conditions of 37° C. and 5% CO2 for 2 days, the resultant was dissolved in a lysis buffer (50 mM Tris-HCl (pH 8.0), 10 mM EDTA, 2 mM EGTA, 100 mM NaF, 1 mM PMSF, 1 mM DTT, 1× Complete (Roche Diagnostics K. K., 1873580)), homogenized, and then centrifuged at 16000×g at 4° C. for 15 minutes. To the precipitated fraction, a lysis buffer was added. Re-dissolved fractions were used as glycogen synthase for evaluation.
The glycogen synthase activity was measured by the following method. To a polystyrene 96-well plate, a solution containing 30 mM glycylglycine (pH 7.3), 40 mM KCl, 20 mM MgCl2, 9.2% DMSO containing one of the test compounds at various concentrations, and 10 mM glucose-6-phosphate (Sigma-Aldrich Corporation, G7879) was added by 12 μL/well.
Next, a substrate solution containing 30 mM glycylglycine (pH 7.3), 4.3 mg/mL of glycogen (Sigma-Aldrich Corporation, G8876), 21.6 mM UDP-glucose (Sigma-Aldrich Corporation, U4625), 21.6 mM phosphoenolpyruvic acid (Sigma-Aldrich Corporation, P0564), and 4.05 mM NADH (Sigma-Aldrich Corporation, N8129) was added by 18 μL/well.
Further, an enzyme solution containing 50 mM Tris-HCl (pH 8.0), 27 mM DTT (Nacalai Tesque, Inc., 14128-04), 0.2 mg/mL of bovine serum albumin, 0.17 mg/mL of the glycogen synthase, 1.5 μL of a pyruvate kinase/lactate dehydrogenase solution (Sigma-Aldrich Corporation, P0294) was added by 18 μL/well to prepare a reaction solution. After the reaction solution was incubated (at 30° C. for 25 minutes for Examples 1 to 10, at 37° C. for 20 minutes for Examples 11 to 75), the absorbance at 340 nm was measured using Benchmark Plus (Bio-Rad Laboratories, Inc.).
The activities of the test compounds were calculated by the following method. The change in the absorbance (ΔA340) was calculated by subtracting the absorbance at 340 nm of the reaction solution containing the compound and DMSO from the absorbance at 340 nm of a reaction solution not containing the compound but containing only DMSO. The ΔA340 of the reaction solution containing the compound of Example 1 in WO/2011/058154 at the final concentration of 10 μM was taken as 100% to calculate the relative activity (%) of the test compounds at various concentrations. EC50 representing the concentration of the compound which induces an increase in the relative activity to 50% was calculated using XLfit (idbs).

[1] = incubation at 37° C. for 20 minutes (Examples 11 to 75)
[2] = incubation at 30° C. for 25 minutes (Examples 1 to 10)

Sequence of human GYS1 (glycogen synthase) (P13807 whole entry): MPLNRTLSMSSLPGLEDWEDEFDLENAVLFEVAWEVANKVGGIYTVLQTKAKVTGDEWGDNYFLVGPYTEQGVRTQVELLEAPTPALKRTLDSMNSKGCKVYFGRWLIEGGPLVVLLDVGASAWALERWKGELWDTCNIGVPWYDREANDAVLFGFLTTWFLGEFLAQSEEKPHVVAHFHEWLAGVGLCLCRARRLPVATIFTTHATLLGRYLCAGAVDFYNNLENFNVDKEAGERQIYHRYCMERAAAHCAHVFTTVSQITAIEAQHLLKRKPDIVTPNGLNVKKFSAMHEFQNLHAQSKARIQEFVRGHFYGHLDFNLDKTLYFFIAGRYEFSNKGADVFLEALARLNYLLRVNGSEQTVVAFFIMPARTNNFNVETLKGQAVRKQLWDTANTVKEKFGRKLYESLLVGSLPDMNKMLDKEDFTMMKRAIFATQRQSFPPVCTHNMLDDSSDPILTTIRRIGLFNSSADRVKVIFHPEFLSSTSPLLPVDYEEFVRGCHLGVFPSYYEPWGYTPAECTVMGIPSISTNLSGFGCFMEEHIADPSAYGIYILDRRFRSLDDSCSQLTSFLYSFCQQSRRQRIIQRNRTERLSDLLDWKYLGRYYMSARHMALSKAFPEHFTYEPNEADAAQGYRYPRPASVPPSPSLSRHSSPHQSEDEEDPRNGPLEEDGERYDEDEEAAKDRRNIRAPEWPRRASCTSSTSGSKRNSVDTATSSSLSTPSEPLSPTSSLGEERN

| Structure (SMILES) | EC50 [1] [µM] | EC50 [2] [µM] |
| --- | --- | --- |
| Cc1coc2c(-c3ccc(OCc4cccc(C(=O)N5CCC[C@H]5C(=O)O)c4)cc3)cc(F)c(F)c12 [compound of Ex. 21, 1-(3-{[4-(4,5-difluoro-3-methyl-1-benzofuran-7-yl)phenoxy]methyl}benzoyl)-L-proline] | 0.054 | – |
| O=C(O)[C@@H]1CCCN1C(=O)c1cccc(COc2ccc(-c3ccc(F)c4occc34)cc2)c1 [compound of Ex. 25, 1-(3-{[4-(7-fluoro-1-benzofuran-4-yl)phenoxy]methyl}benzoyl)-L-proline] | 0.4 | – |
| O=C(O)[C@@H]1CCCN1C(=O)c1cccc(COc2ccc(-c3ccc(F)c4c3OCC4)cc2)c1 [compound of Ex. 10] | – | 0.35 |
| O=C(O)[C@@H]1CCCN1C(=O)c1cccc(COc2ccc(-c3cc(F)c4occc4c3)cc2)c1 [compound of Ex. 14, 1-(3-{[4-(7-fluoro-1-benzofuran-5-yl)phenoxy]methyl}benzoyl)-L-proline] | 0.07 | – |
| O=C(O)[C@@H]1CCCN1C(=O)c1cccc(COc2ccc(-c3ccc(F)c4c3OCO4)cc2)c1 [compound of Ex. 13, 1-(3-{[4-(7-fluoro-1,3-benzodioxol-4-yl)phenoxy]methyl}benzoyl)-L-proline] | 0.27 | – |
| O=C(O)[C@@H]1CCCN1C(=O)c1cccc(COc2ccc(-c3ccc4occc4c3)cc2)c1 [compound of Ex. 6] | – | 0.33 |
| CN(CC(=O)O)C(=O)c1cccc(COc2ccc(-c3cc(F)cc4c3OCC4)cc2)c1 [compound of Ex. 2, N-(3-{[4-(5-fluoro-2,3-dihydro-1-benzofuran-7-yl)phenoxy]methyl}benzoyl)-N-methylglycine] | – | 0.59 |
| O=C(O)[C@@H]1CCCN1C(=O)c1cccc(COc2ccc(-c3cc(F)c4occc4c3F)cc2)c1 [compound of Ex. 17, 1-(3-{[4-(4,7-difluoro-1-benzofuran-5-yl)phenoxy]methyl}benzoyl)-L-proline] | 0.27 | – |
| Cc1cc2c(F)c(F)cc(-c3ccc(OCc4cccc(C(=O)N5CCC[C@H]5C(=O)O)c4)cc3)c2o1 [compound of Ex. 23, 1-(3-{[4-(4,5-difluoro-2-methyl-1-benzofuran-7-yl)phenoxy]methyl}benzoyl)-L-proline] | 0.11 | – |
| O=C(O)[C@@H]1CCCN1C(=O)c1cccc(COc2ccc(-c3ccc(F)c4ccoc34)cc2)c1 [compound of Ex. 3, 1-(3-{[4-(4-fluoro-1-benzofuran-7-yl)phenoxy]methyl}benzoyl)-L-proline] | – | 0.11 |
| O=C(O)[C@@H]1CCCN1C(=O)c1cccc(COc2ccc(-c3cccc4c3CCC4)cc2)c1 [compound of Ex. 24, 1-(3-{[4-(2,3-dihydro-1H-inden-4-yl)phenoxy]methyl}benzoyl)-L-proline] | 0.67 | – |

Further lines, results first:

| EC50 [1] [µM] | EC50 [2] [µM] | Structure (SMILES) |
| --- | --- | --- |
| 0.26 | – | N#Cc1cc2c(F)c(F)cc(-c3ccc(OCc4cccc(C(=O)N5CCC[C@H]5C(=O)O)c4)cc3)c2o1 [compound of Ex. 54] |
| 0.042 | – | O=C(O)[C@@H]1CCCN1C(=O)c1cccc(COc2ccc(-c3cc(F)c(F)c4ccsc34)cc2)c1 [compound of Ex. 39, 1-(3-{[4-(4,5-difluoro-1-benzothien-7-yl)phenoxy]methyl}benzoyl)-L-proline] |
| 0.2 | – | COCc1cc2c(F)c(F)cc(-c3ccc(OCc4cccc(C(=O)N5CCC[C@H]5C(=O)O)c4)cc3)c2s1 [compound of Ex. 74, 1-[3-({4-[4,5-difluoro-2-(methoxymethyl)-1-benzothien-7-yl]phenoxy}methyl)benzoyl]-L-proline] |
| 0.34 | – | O=C(O)[C@@H]1CSCN1C(=O)c1cccc(COc2ccc(-c3cc(F)c(F)c4ccoc34)cc2)c1 [compound of Ex. 68, (4R)-3-(3-{[4-(4,5-difluoro-1-benzofuran-7-yl)phenoxy]methyl}benzoyl)-1,3-thiazolidine-4-carboxylic acid] |
| 0.89 | – | O=C(O)[C@@H]1CCCN1C(=O)c1cccc(COc2ccc(-c3cccc4ccsc34)cc2)c1 [compound of Ex. 28, 1-(3-{[4-(1-benzothien-7-yl)phenoxy]methyl}benzoyl)-L-proline] |
| 0.017 | – | C#CCOc1cc(F)c(F)cc1-c1ccc(OCc2cccc(C(=O)N3CCC[C@H]3C(=O)O)c2)cc1 [compound of Ex. 34, 1-[3-({[4′,5′-difluoro-2′-(prop-2-yn-1-yloxy)biphenyl-4-yl]oxy}methyl)benzoyl]-L-proline] |
| 0.15 | – | O=C(O)[C@@H]1CCN1C(=O)c1cccc(COc2ccc(-c3cc(F)c(F)c4ccoc34)cc2)c1 [compound of Ex. 59, (2S)-1-(3-{[4-(4,5-difluoro-1-benzofuran-7-yl)phenoxy]methyl}benzoyl)azetidine-2-carboxylic acid] |
| 0.21 | – | O=C(O)[C@@H]1CCCN1C(=O)c1cccc(COc2ccc(-c3ccc(F)c4c3C=CCO4)cc2)c1 [compound of Ex. 27, 1-(3-{[4-(8-fluoro-2H-chromen-5-yl)phenoxy]methyl}benzoyl)-L-proline] |
| 0.029 | – | CSc1cc(F)c(F)cc1-c1ccc(OCc2cccc(C(=O)N3CCC[C@H]3C(=O)O)c2)cc1 [compound of Ex. 38, 1-[3-({[4′,5′-difluoro-2′-(methylthio)biphenyl-4-yl]oxy}methyl)benzoyl]-L-proline] |
| 0.27 | – | Cc1cc2c(F)c(F)cc(-c3ccc(OCc4cccc(C(=O)N5CCC[C@H]5C(=O)O)c4)cc3)c2s1 [compound of Ex. 62, 1-(3-{[4-(4,5-difluoro-2-methyl-1-benzothien-7-yl)phenoxy]methyl}benzoyl)-L-proline] |
| 0.15 | – | N#CCc1coc2c(-c3ccc(OCc4cccc(C(=O)N5CCC[C@H]5C(=O)O)c4)cc3)cc(F)c(F)c12 [compound of Ex. 46, 1-[3-({4-[3-(cyanomethyl)-4,5-difluoro-1-benzofuran-7-yl]phenoxy}methyl)benzoyl]-L-proline] |
| 0.8 | – | COCc1coc2c(-c3ccc(OCc4cccc(C(=O)N5CCC[C@H]5C(=O)O)c4)cc3)cc(F)c(F)c12 [compound of Ex. 45, 1-[3-({4-[4,5-difluoro-3-(methoxymethyl)-1-benzofuran-7-yl]phenoxy}methyl)benzoyl]-L-proline] |
| 0.12 | – | N#CCOc1cc(-c2ccc(OCc3cccc(C(=O)N4CCC[C@H]4C(=O)O)c3)cc2)cc(F)c1F [compound of Ex. 48, 1-[3-({[3′-(cyanomethoxy)-4′,5′-difluorobiphenyl-4-yl]oxy}methyl)benzoyl]-L-proline] |
| 0.015 | – | N#CCOc1cc(F)c(F)cc1-c1ccc(OCc2cccc(C(=O)N3CCC[C@H]3C(=O)O)c2)cc1 [compound of Ex. 35, 1-[3-({[2′-(cyanomethoxy)-4′,5′-difluorobiphenyl-4-yl]oxy}methyl)benzoyl]-L-proline] |
| 0.1 | – | Cc1cc2c(-c3ccc(OCc4cccc(C(=O)N5CCC[C@H]5C(=O)O)c4)cc3)cc(F)c(F)c2[nH]1 [compound of Ex. 41, 1-(3-{[4-(6,7-difluoro-2-methyl-1H-indol-4-yl)phenoxy]methyl}benzoyl)-L-proline] |
| 0.14 | – | O=C(O)[C@@H]1C=CCN1C(=O)c1cccc(COc2ccc(-c3cc(F)c(F)c4ccoc34)cc2)c1 [compound of Ex. 64, (2S)-1-(3-{[4-(4,5-difluoro-1-benzofuran-7-yl)phenoxy]methyl}benzoyl)-2,5-dihydro-1H-pyrrole-2-carboxylic acid] |
